Laboratory results: US6133266A, “3,4-disubstituted phenylethanolaminotetralincarboxamide derivatives” (Kissei Pharmaceutical Co., Ltd., priority 1996, dated 2000)
Structures can show the parent of a compound that is named as a salt.

Experiments:
β2 -adrenergic receptor = molecular target: T1, β2 -adrenergic receptor (Rattus norvegicus, UniProt P10608); assay: Action of drugs on the spontaneous contractions of isolated myometria (isolated rat pregnant uterus); assay type: cell-based; settings: isolated pregnant SD rat uterus (pregnancy day 21), Magnus method, 37° C.; read-out: EC50, activity to relax 50% of the spontaneous contractions of rat myometrium
T1 construct: longitudinal uterine muscle strips (about 15 mm in length and about 5 mm in width); from tissue; host or cells: longitudinal uterine muscle strips of pregnant SD rat (day 21)
Experimental: Thus, the compounds of the present invention have markedly potent β2 -adrenergic receptor stimulating effect and therefore are remarkably useful as β2 -adrenergic receptor stimulating agents.
Action of drugs on the spontaneous contractions of isolated myometria
The uterus of a pregnant SD rat (pregnancy day of 21) was isolated and longitudinal uterine muscle strips (about 15 mm in length and about 5 mm in width) free from the basal plate were prepared. The experiment was conducted according to the Magnus method. The preparations were mounted with a tension of 1 g in Locke-Ringer solution maintained at 37° C. and gassed with a mixture of 95% of oxygen and 5% of carbon dioxide. Spontaneous contractions of the myometrium were induced isometrically via a pressure transducer and recorded on a rectigram. The efficacy was evaluated by comparing the total degree of uterine contraction during 5 minutes before the addition of the drug with the total degree of uterine contraction during 5 minutes after the addition of the drug and calculating the 50% inhibitory concentration as EC50.

β1 -adrenergic receptor = assay: Action of drugs on the atrial contractions of isolated atria (isolated rat atrium); assay type: cell-based; settings: isolated atria of SD male rats, Magnus method, 37° C.
Experimental: Thus, the compounds of the present invention have markedly weak β1 -adrenergic receptor stimulating effect in comparison with the aforementioned β2 -adrenergic receptor stimulating effect.
Action of drugs on the atrial contractions of isolated atria The atria of SD male rats (350 to 400 g in body weight) were isolated and the experiment was conducted according to the Magnus method. The preparations were mounted with a tension of 1 g in Krebs-Henseleit solution maintained at 37° C. and gassed with a mixture of 95% of oxygen and 5% of carbon dioxide. The atrial contraction was induced isometrically via a pressure transducer and recorded on a rectigram. After addition of the drug, its efficacy was evaluated by calculating EC20 value which is the drug concentration which increases 20 beats per minute of heart rate.

male ICR mice = assay: Acute toxicity; assay type: in vivo; settings: 5 male ICR mice, intravenously in saline, 20 mg/kg, during 24 hours after the administration
Experimental: To 5 male ICR mice of 4 weeks age was administered intravenously 2-[(2S)-2-[[(2R)-2-hydroxy-2-(4-hydroxy-3hydroxymethylphenyl)ethyl]amino]- 1,2,3,4-tetrahydronaphthalen-7-yloxy]-N,N-dimethylacetamide 0.5 sulfate in saline at dose of 20 mg/kg.

T1 sequence (P10608 whole entry): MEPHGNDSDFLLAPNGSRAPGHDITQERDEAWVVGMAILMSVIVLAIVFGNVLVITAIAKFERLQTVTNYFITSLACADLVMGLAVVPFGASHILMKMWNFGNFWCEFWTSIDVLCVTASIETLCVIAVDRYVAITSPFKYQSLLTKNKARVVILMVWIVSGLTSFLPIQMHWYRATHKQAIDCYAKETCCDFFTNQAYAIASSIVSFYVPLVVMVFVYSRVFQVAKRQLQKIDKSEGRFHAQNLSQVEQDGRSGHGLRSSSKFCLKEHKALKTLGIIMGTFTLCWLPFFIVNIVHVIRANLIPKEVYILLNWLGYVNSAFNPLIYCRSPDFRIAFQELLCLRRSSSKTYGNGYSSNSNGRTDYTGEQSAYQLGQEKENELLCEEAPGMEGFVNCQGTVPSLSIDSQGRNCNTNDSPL

SMILES	EC50 (β2 -adrenergic receptor)	EC20 value, activity to increase 20 beats per minute of rat heart rate (β1 -adrenergic receptor)	death of animals (male ICR mice)
CN(C)C(=O)COc1ccc2c(c1)C[C@@H](NCC(O)c1ccc(O)c(CO)c1)CC2 (mixture of isomers) [Compound 1, 2-[(2S)-2-[[(2RS)-2-Hydroxy-2-(4-hydroxy-3-hydroxymethylphenyl)ethyl]amino]-1,2,3,4-tetrahydronaphthalen-7yloxy]-N,N-dimethylacetamide]	5.3 nM	2.5×10^-6 mol concentration	–
CN(C)C(=O)COc1ccc2c(c1)C[C@@H](NC[C@H](O)c1ccc(O)c(CO)c1)CC2 [Compound 6, (-)-2-[(2S)-2-[[(2R)-2-Hydroxy-2-(4-hydroxy-3-hydroxymethylphenyl)ethyl]amino]-1,2,3,4-tetrahydronaphthalen-7-yloxy]-N,N-dimethylacetamide]	2.6 nM	9.4×10^-7 mol concentration	–
CN(C)C(=O)COc1ccc2c(c1)C[C@@H](NC[C@H](O)c1ccc(O)c(CO)c1)CC2 [Compound 19, (-)-2-[(2S)-2-[[(2R)-2-Hydroxy-2-(4-hydroxy-3-hydroxymethylphenyl)ethyl]amino]-1,2,3,4-tetrahydronaphthalen-7-yloxy]-N,N-dimethylacetamide 0.5 sulfate]	–	–	No death of animals was observed
